# Assays:
# Assay in all cases: Test B pre-/postemergence
# Assay type in all cases: in vivo
# Set-up in all cases: key: 0 is no effect; 10 is complete control
# [1] = system: velvetleaf (Abutilon theophrasti)
# Method in brief: (§1)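 Seeds were planted and sprayed preemergence, while plants at 2 to 18 cm (1- to 4-leaf stage) were sprayed postemergence at the same time, with test chemical in a non-phytotoxic solvent mixture containing surfactant. After twelve to sixteen days in a greenhouse, injury was rated visually against untreated controls on a 0–10 scale.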
# [2] = system: sugar beet (Beta vulgaris)
# Method in brief: as §1
# [3] = system: pigweed (Amaranthus retroflexus)
# Method in brief: as §1
# [4] = system: momingglory (Ipomoea hederacea)
# Method in brief: as §1
# [5] = system: corn (Zea mays)
# Method in brief: as §1
# [6] = system: soybean (Glycine max)
# Method in brief: as §1
# [7] = system: giant foxtail (Setaria faberii)
# Method in brief: as §1
# [8] = system: crabgrass (Digitaria sanguinalis)
# Method in brief: as §1
# [9] = system: broadleaf signalgrass (Brachiaria decumbens)
# Method in brief: as §1
# [10] = system: wheat (Triticum aestivum)
# Method in brief: as §1
# [11] = system: cocklebur (Xanthium strumarium)
# Method in brief: as §1
# [12] = system: wild oat (Avena fatua)
# Method in brief: as §1
# [13] = system: blackgrass (Alopecurus myosuroides)
# Method in brief: as §1
# [14] = system: purple nutsedge (Cyperus rotundus)
# Method in brief: as §1
smiles,measurement,setting,value
"Cc1cnc(-c2ccc(C(F)(F)F)cc2)nc1Cc1cccc(C(F)(F)F)c1 [Example 1, 5-methyl-2-[4-(trifluoromethyl)phenyl]-4-[[3-(trifluoromethyl)phenyl]methyl]pyrimidine]","Plant response rating, Velvetleaf","[1]; Rate 62 g/ha, Postemergence",7
same,Velvetleaf plant response rating,"[1]; Rate 62 g/ha, Preemergence",6
same,"Plant response rating, Velvetleaf","[1]; Rate 125 g/ha, Postemergence",8
same,Velvetleaf plant response rating,"[1]; Rate 125 g/ha, Preemergence",10
same,"Plant response rating, Velvetleaf","[1]; Rate 250 g/ha, Postemergence",9
same,"Plant response rating, Velvetleaf","[1]; Rate 250 g/ha, Preemergence",10
same,"Plant response rating, Velvetleaf","[1]; Rate 500 g/ha, Postemergence",9
same,"Plant response rating, Velvetleaf","[1]; Rate 500 g/ha, Preemergence",10
same,"Plant response rating, Sugarbeets","[2]; Rate 62 g/ha, Postemergence",10
same,Sugarbeets plant response rating,"[2]; Rate 62 g/ha, Preemergence",10
same,"Plant response rating, Sugarbeets","[2]; Rate 125 g/ha, Postemergence",10
same,Sugarbeets plant response rating,"[2]; Rate 125 g/ha, Preemergence",10
same,"Plant response rating, Sugarbeets","[2]; Rate 250 g/ha, Postemergence",10
same,"Plant response rating, Sugarbeets","[2]; Rate 250 g/ha, Preemergence",10
same,"Plant response rating, Sugarbeets","[2]; Rate 500 g/ha, Postemergence",10
same,"Plant response rating, Sugarbeets","[2]; Rate 500 g/ha, Preemergence",10
same,"Plant response rating, Redroot pigweed","[3]; Rate 62 g/ha, Postemergence",9
same,Redroot pigweed plant response rating,"[3]; Rate 62 g/ha, Preemergence",10
same,"Plant response rating, Redroot pigweed","[3]; Rate 125 g/ha, Postemergence",9
same,Redroot pigweed plant response rating,"[3]; Rate 125 g/ha, Preemergence",10
same,"Plant response rating, Redroot pigweed","[3]; Rate 250 g/ha, Postemergence",10
same,"Plant response rating, Redroot pigweed","[3]; Rate 250 g/ha, Preemergence",10
same,"Plant response rating, Redroot pigweed","[3]; Rate 500 g/ha, Postemergence",10
same,"Plant response rating, Redroot pigweed","[3]; Rate 500 g/ha, Preemergence",10
same,"Plant response rating, Morningglory","[4]; Rate 62 g/ha, Postemergence",4
same,Morningglory plant response rating,"[4]; Rate 62 g/ha, Preemergence",10
same,"Plant response rating, Morningglory","[4]; Rate 125 g/ha, Postemergence",8
same,Morningglory plant response rating,"[4]; Rate 125 g/ha, Preemergence",10
same,"Plant response rating, Morningglory","[4]; Rate 250 g/ha, Postemergence",10
same,"Plant response rating, Morningglory","[4]; Rate 250 g/ha, Preemergence",10
same,"Plant response rating, Morningglory","[4]; Rate 500 g/ha, Postemergence",10
same,"Plant response rating, Morningglory","[4]; Rate 500 g/ha, Preemergence",10
same,"Plant response rating, Corn","[5]; Rate 62 g/ha, Postemergence",4
same,Corn plant response rating,"[5]; Rate 62 g/ha, Preemergence",1
same,"Plant response rating, Corn","[5]; Rate 125 g/ha, Postemergence",4
same,Corn plant response rating,"[5]; Rate 125 g/ha, Preemergence",1
same,"Plant response rating, Corn","[5]; Rate 250 g/ha, Postemergence",4
same,"Plant response rating, Corn","[5]; Rate 250 g/ha, Preemergence",2
same,"Plant response rating, Corn","[5]; Rate 500 g/ha, Postemergence",7
same,"Plant response rating, Corn","[5]; Rate 500 g/ha, Preemergence",2
same,"Plant response rating, Soybean","[6]; Rate 62 g/ha, Postemergence",8
same,Soybean plant response rating,"[6]; Rate 62 g/ha, Preemergence",1
same,"Plant response rating, Soybean","[6]; Rate 125 g/ha, Postemergence",8
same,Soybean plant response rating,"[6]; Rate 125 g/ha, Preemergence",1
same,"Plant response rating, Soybean","[6]; Rate 250 g/ha, Postemergence",9
same,"Plant response rating, Soybean","[6]; Rate 250 g/ha, Preemergence",3
same,"Plant response rating, Soybean","[6]; Rate 500 g/ha, Postemergence",9
same,"Plant response rating, Soybean","[6]; Rate 500 g/ha, Preemergence",5
same,"Plant response rating, Giant foxtail","[7]; Rate 62 g/ha, Postemergence",3
same,Giant foxtail plant response rating,"[7]; Rate 62 g/ha, Preemergence",10
same,"Plant response rating, Giant foxtail","[7]; Rate 125 g/ha, Postemergence",7
same,Giant foxtail plant response rating,"[7]; Rate 125 g/ha, Preemergence",10
same,"Plant response rating, Giant foxtail","[7]; Rate 250 g/ha, Postemergence",9
same,"Plant response rating, Giant foxtail","[7]; Rate 250 g/ha, Preemergence",10
same,"Plant response rating, Giant foxtail","[7]; Rate 500 g/ha, Postemergence",9
same,"Plant response rating, Giant foxtail","[7]; Rate 500 g/ha, Preemergence",10
same,"Plant response rating, Crabgrass","[8]; Rate 62 g/ha, Postemergence",4
same,Crabgrass plant response rating,"[8]; Rate 62 g/ha, Preemergence",10
same,"Plant response rating, Crabgrass","[8]; Rate 125 g/ha, Postemergence",9
same,Crabgrass plant response rating,"[8]; Rate 125 g/ha, Preemergence",10
same,"Plant response rating, Crabgrass","[8]; Rate 250 g/ha, Postemergence",9
same,"Plant response rating, Crabgrass","[8]; Rate 250 g/ha, Preemergence",10
same,"Plant response rating, Crabgrass","[8]; Rate 500 g/ha, Postemergence",9
same,"Plant response rating, Crabgrass","[8]; Rate 500 g/ha, Preemergence",10
same,"Plant response rating, B. signalgrass","[9]; Rate 62 g/ha, Postemergence",3
same,B. signalgrass plant response rating,"[9]; Rate 62 g/ha, Preemergence",9
same,"Plant response rating, B. signalgrass","[9]; Rate 125 g/ha, Postemergence",6
same,B. signalgrass plant response rating,"[9]; Rate 125 g/ha, Preemergence",9
same,"Plant response rating, B. signalgrass","[9]; Rate 250 g/ha, Postemergence",8
same,"Plant response rating, B. signalgrass","[9]; Rate 250 g/ha, Preemergence",9
same,"Plant response rating, B. signalgrass","[9]; Rate 500 g/ha, Postemergence",9
same,"Plant response rating, B. signalgrass","[9]; Rate 500 g/ha, Preemergence",9
same,"Plant response rating, Wheat","[10]; Rate 62 g/ha, Postemergence",2
same,Wheat plant response rating,"[10]; Rate 62 g/ha, Preemergence",1
same,"Plant response rating, Wheat","[10]; Rate 125 g/ha, Postemergence",2
same,Wheat plant response rating,"[10]; Rate 125 g/ha, Preemergence",5
same,"Plant response rating, Wheat","[10]; Rate 250 g/ha, Postemergence",3
same,"Plant response rating, Wheat","[10]; Rate 250 g/ha, Preemergence",8
same,"Plant response rating, Wheat","[10]; Rate 500 g/ha, Postemergence",5
same,"Plant response rating, Wheat","[10]; Rate 500 g/ha, Preemergence",9
same,"Plant response rating, Cocklebur","[11]; Rate 62 g/ha, Postemergence",7
same,Cocklebur plant response rating,"[11]; Rate 62 g/ha, Preemergence",2
same,"Plant response rating, Cocklebur","[11]; Rate 125 g/ha, Postemergence",8
same,Cocklebur plant response rating,"[11]; Rate 125 g/ha, Preemergence",2
same,"Plant response rating, Cocklebur","[11]; Rate 250 g/ha, Postemergence",9
same,"Plant response rating, Cocklebur","[11]; Rate 250 g/ha, Preemergence",3
same,"Plant response rating, Cocklebur","[11]; Rate 500 g/ha, Postemergence",10
same,"Plant response rating, Cocklebur","[11]; Rate 500 g/ha, Preemergence",10
same,"Plant response rating, Wild oats","[12]; Rate 62 g/ha, Postemergence",4
same,Wild oats plant response rating,"[12]; Rate 62 g/ha, Preemergence",8
same,"Plant response rating, Wild oats","[12]; Rate 125 g/ha, Postemergence",7
same,Wild oats plant response rating,"[12]; Rate 125 g/ha, Preemergence",9
same,"Plant response rating, Wild oats","[12]; Rate 250 g/ha, Postemergence",7
same,"Plant response rating, Wild oats","[12]; Rate 250 g/ha, Preemergence",9
same,"Plant response rating, Wild oats","[12]; Rate 500 g/ha, Postemergence",9
same,"Plant response rating, Wild oats","[12]; Rate 500 g/ha, Preemergence",10
same,"Plant response rating, Blackgrass","[13]; Rate 62 g/ha, Postemergence",7
same,Blackgrass plant response rating,"[13]; Rate 62 g/ha, Preemergence",8
same,"Plant response rating, Blackgrass","[13]; Rate 125 g/ha, Postemergence",7
same,Blackgrass plant response rating,"[13]; Rate 125 g/ha, Preemergence",9
same,"Plant response rating, Blackgrass","[13]; Rate 250 g/ha, Postemergence",9
same,"Plant response rating, Blackgrass","[13]; Rate 250 g/ha, Preemergence",10
same,"Plant response rating, Blackgrass","[13]; Rate 500 g/ha, Postemergence",9
same,"Plant response rating, Blackgrass","[13]; Rate 500 g/ha, Preemergence",10
same,Nutsedge plant response rating,"[14]; Rate 62 g/ha, Preemergence",0
same,Nutsedge plant response rating,"[14]; Rate 125 g/ha, Preemergence",0
same,"Plant response rating, Nutsedge","[14]; Rate 250 g/ha, Postemergence",1
same,"Plant response rating, Nutsedge","[14]; Rate 500 g/ha, Postemergence",2
same,"Plant response rating, Nutsedge","[14]; Rate 500 g/ha, Preemergence",1

# Source: patent publication US6525001B1, “Substituted pyrimidine and pyridine herbicides” (Mid-American Commercialization Corporation, priority 1997, dated 2003)
